The text below walks through data of US20240166639A1, “POTENT AND SELECTIVE COMPOUNDS AS SEROTONIN 1B RECEPTOR MODULATORS” (LEUKOS BIOTECH, S.L., priority 2020, published 2024).

pEC50, pKi: −log10 of the molar value. Counter-ions that a name gives are not always drawn.

The target in series [1] is human 5-HT2A receptor (Homo sapiens (Human), UniProt P28223). The series is described as follows: Competition binding in human 5-HT2A receptor. Particulars: [3H]-Ketanserin, CHO-5-HT2A membranes; read-out: h5-HT2A Ki. As for the experimental part: Serotonin 5-HT2A receptor competition binding experiments were carried out in a polypropilene 96-well plate. In each well was incubated 80 μg of membranes from CHO-5-HT2A cell line prepared in the laboratory (protein concentration=4337 μg/ml), 1 nM [^3H]-Ketanserin (47.3 Ci/mmol, 1 mCi/ml, Perkin Elmer NET791250UC) and compounds studied and standard. Non-specific binding was determined in the presence of Methysergide 1 μM (Sigma M137). The reaction mixture (Vt: 250 μl/well) was incubated at 37° C. for 30 min, 200 μL was transfered to GF/B 96-well plate (Millipore, Madrid, Spain) pretreated with 0.5% of PEI and treated with binding buffer (Tris-HCl 50 mM, pH=7.4), after was filtered and washed six times with 250 μl wash buffer (Tris-HCl 50 mM, pH=6.6), before measuring in a microplate beta scintillation counter (Microbeta Trilux, PerkinElmer, Madrid, Spain).
The raw radioactivity data is adjusted to a logistic regression of 4 parameters using GraphPad Prism software, from the specific junction the value of IC50 is obtained. From the IC50 the Ki is calculated according to the following formula: […]
(§1) Being: • IC50: inhibitory concentration, • D: real concentration of radioligand and • Kd: dissociation constant (affinity of radioligand to the receptor).

Series [2] concerns the target human 5-HT1B receptor (Homo sapiens (Human), UniProt P28222). The series is described as follows: Competition binding in human 5-HT1B receptor. Particulars: [3H]-GR125743, Hela-5-HT1B membranes; read-out: h5-HT1B Ki. As to the method: Serotonin 5-HT1B receptor competition binding experiments were carried out in a polypropylene 96-well plate. In each well was incubated 5 μg of membranes from Hela-5-HT1B cell line prepared in the laboratory (Lot: A001/14-11-2011, protein concentration=3179 μg/ml), 1.5 nM [^3H]-GR125743 ([…], 0.1 mCi/ml, Perkin Elmer NET1172100UC) and compounds studied and standard. Non-specific binding was determined in the presence of GR55562 10 μM (TOCRIS 1054). The reaction mixture (Vt: 250 μl/well) was incubated at 25° C. for 90 min, 200 μL was transfered to GF/C 96-well plate (Millipore, Madrid, Spain) pretreated with 0.5% of PEI and treated with binding buffer (Tris-HCl 50 mM, EDTA 1 mM, MgCl2 10 mM, pH=7.4), after was filtered and washed four times with 250 μl wash buffer (Tris-HCl 50 mM, pH=7.4), before measuring in a microplate beta scintillation counter (Microbeta Trilux, PerkinElmer, Madrid, Spain). […] From the IC50 the Ki is calculated according to the following formula: […]
as §1

Series [3] relates to MonoMac-1. As to the kind of experiment: Cell viability assay, AML cell line MonoMac-1. It counts as cell-based. Particulars: 48 h treatment, live cells by flow cytometry. As to the method:
(§2) 0.15×10^6 AML cell lines (HL-60 or MonoMac-1) per mL were cultured in completed RPMI medium, supplemented with 10% Fetal bovine serum (FBS). Compounds were added to the medium at the concentration indicated (0.1, 1 and 10 μM), while controls were treated with equivalent concentration of vehicle (DMSO). Primary validation screenings were analyzed after 72 h of treatment, EC50 was determined upon 48 h treatments. Cells were stained with the live-dead discrimination dye 7-aminoactinomycin D (7-AAD) and Hoechst 33342 and acquired in a flow cytometer, with a volumetric counting. Live cells were discriminated based on a discrete FSC-SSC profile, 7-AAD negativity and dim positivity to Hoechst 33342. EC50 was calculated with the Prism GraphPad software.

Series [4] in a line: Healthy blood cells viability assay. It counts as cell-based. Particulars: 48 h treatment, healthy peripheral blood mononuclear cells; read-out: EC50 (uM), cytotoxic capacity on healthy cells. As to the method: 0.5×10^6 peripheral blood-mononuclear blood cells per mL were cultured in completed RPM medium, supplemented with 10% FBS. Compounds were added to the medium at 0.5/1/5/10/50 μM, while controls were treated with equivalent concentration of vehicle (DMSO). Upon 48 h treatment, cells were stained with the live-dead discrimination dye 7-AAD and Hoechst 33342, the pan-hernatopoietic surface marker CD45, and acquired in a flow cytometer, with a volumetric counting. Live cells were discriminated based on a discrete FSC-SSC profile, 7-AAD negativity, dim positivity to Hoechst 33342 and CD45 positivity. EC50 was calculated with the Prism GraphPad software.

Series [5] concerns HL-60. The series is described as follows: Cell viability assay, AML cell line HL-60. The series is classed as cell-based. Particulars: 48 h treatment, live cells by flow cytometry. As to the method: as §2
A general note: A flow cytometer gives signals particle by particle.

Sequence of human 5-HT2A receptor (P28223 whole entry): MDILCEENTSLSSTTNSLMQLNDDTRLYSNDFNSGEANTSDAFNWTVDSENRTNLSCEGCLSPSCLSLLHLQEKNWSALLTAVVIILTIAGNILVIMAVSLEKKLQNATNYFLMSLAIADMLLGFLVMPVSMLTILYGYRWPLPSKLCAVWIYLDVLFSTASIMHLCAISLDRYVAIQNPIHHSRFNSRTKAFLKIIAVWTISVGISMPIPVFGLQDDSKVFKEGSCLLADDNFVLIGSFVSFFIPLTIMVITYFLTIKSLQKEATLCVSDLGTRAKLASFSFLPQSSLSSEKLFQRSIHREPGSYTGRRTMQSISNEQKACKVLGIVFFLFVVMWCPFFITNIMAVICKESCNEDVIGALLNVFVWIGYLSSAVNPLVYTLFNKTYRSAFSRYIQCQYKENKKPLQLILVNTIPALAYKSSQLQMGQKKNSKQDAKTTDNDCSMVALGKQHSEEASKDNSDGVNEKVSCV
Sequence of human 5-HT1B receptor (P28222 whole entry): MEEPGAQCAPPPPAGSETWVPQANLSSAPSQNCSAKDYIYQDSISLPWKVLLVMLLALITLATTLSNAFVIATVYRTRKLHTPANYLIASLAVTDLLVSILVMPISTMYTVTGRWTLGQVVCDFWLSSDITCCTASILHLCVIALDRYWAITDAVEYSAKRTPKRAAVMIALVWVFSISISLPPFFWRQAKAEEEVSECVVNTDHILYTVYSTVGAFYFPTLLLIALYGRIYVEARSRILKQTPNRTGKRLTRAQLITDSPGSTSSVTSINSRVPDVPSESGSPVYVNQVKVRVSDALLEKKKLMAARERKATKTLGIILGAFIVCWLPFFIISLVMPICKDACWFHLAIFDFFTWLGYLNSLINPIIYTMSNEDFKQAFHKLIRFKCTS

By pKi is commonly meant the negative decadic logarithm of the Ki, by convention in mol/L. Regarding `Cc1nc(-c2ccc(-c3ccc(C(=O)Nc4cc(OCCN(C)C)c(Br)cn4)cn3)c(C(F)(F)F)c2)no1` [Example 42, N-(5-bromo-4-(2-(dimethylamino)ethoxy)pyridin-2-yl)-6-(4-(5-methyl-1,2,4-oxadiazol-3-yl)-2-(trifluoromethyl)phenyl)nicotinamide], the pKi in series [1] is 5.46; in series [2], 8.70.
As usually defined, the pEC50 is −log10 of the EC50, conventionally taken in molar units. As usually defined, the EC50 is the midpoint of the concentration-response curve. Consider `Cc1nc(-c2ccc(-c3ccc(C(=O)Nc4cc(OCCN(C)C)c(C#N)cn4)cc3)c(Cl)c2)no1` [Example 23, 2′-chloro-N-(5-cyano-4-(2-(dimethylamino)ethoxy)pyridin-2-yl)-4′-(5-methyl-1,2,4-oxadiazol-3-yl)-[1,1′-biphenyl]-4-carboxamide], for which the pEC50 was 6.27 in series [3] (Mono-Mac-1) and 6.01 in series [5] (Homo sapiens, HL-60). Further, the pKi is 5.52 in series [1] and 8.10 in series [2]. Besides, the EC50 at 48 h in series [4] was greater than 50 µM.
In the case of `Cc1nc(-c2ccc(-c3ccc(C(=O)Nc4cc(OCCN(C)C)c(Br)cn4)cn3)c(C3CC3)c2)no1` [Example 39, N-(5-bromo-4-(2-(dimethylamino)ethoxy)pyridin-2-yl)-6-(2-cyclopropyl-4-(5-methyl-1,2,4-oxadiazol-3-yl)phenyl)nicotinamide], the pEC50 in series [3] (Mono-Mac-1) was 5.59; in series [5] (Homo sapiens, HL-60) it was 5.46. The concentration giving a half-maximal response (EC50) at 48 h in series [4] is 50 µM.
With `Cc1nc(-c2ccc(-c3ccc(C(=O)Nc4cc(OCCN(C)C)c(Br)cn4)cn3)c(F)c2)no1` [Example 40, N-(5-bromo-4-(2-(dimethylamino)ethoxy)pyridin-2-yl)-6-(2-fluoro-4-(5-methyl-1,2,4-oxadiazol-3-yl)phenyl)nicotinamide], the pEC50 in series [3] (Mono-Mac-1) was 6.24; in series [5] (Homo sapiens, HL-60), 6.00. The pKi in series [1] is 5.82; in series [2], 8.46.
On to `Cc1nc(-c2ccc(-c3ccc(C(=O)Nc4cc(OCCN(C)C)c(C#N)cn4)cn3)c(C3CC3)c2)no1` [Example 45, N-(5-cyano-4-(2-(dimethylamino)ethoxy)pyridin-2-yl)-6-(2-cyclopropyl-4-(5-methyl-1,2,4-oxadiazol-3-yl)phenyl)nicotinamide], for which the pEC50 in series [3] (Mono-Mac-1) is 5.94; in series [5] (Homo sapiens, HL-60), 5.75. Also, the pKi in series [1] is less than 5.00; in series [2] it was 7.59. Further, in series [4], the EC50 at 48 h was greater than 50 µM.
Take `Cc1nc(-c2ccc(-c3ccc(C(=O)Nc4ncc(C#N)c(OCCN(C)C)n4)cc3)c(C3CC3)c2)no1` [Example 36, N-(5-cyano-4-(2-(dimethylamino)ethoxy)pyrimidin-2-yl)-2′-cyclopropyl-4′-(5-methyl-1,2,4-oxadiazol-3-yl)-[1,1′-biphenyl]-4-carboxamide]: the pEC50 in series [3] (Mono-Mac-1) was 5.13; in series [5] (Homo sapiens, HL-60) it was 5.23. In addition, the EC50 at 48 h in series [4] amounted to 25 µM.
Turning to `Cc1nc(-c2ccc(-c3ccc(C(=O)Nc4ccc(C#N)c(OCCN(C)C)c4)cn3)c(C3CC3)c2)no1` [Example 7, N-(4-cyano-3-(2-(dimethylamino)ethoxy)phenyl)-6-(2-cyclopropyl-4-(5-methyl-1,2,4-oxadiazol-3-yl)phenyl)nicotinamide], the pEC50 in series [3] (Mono-Mac-1) is 6.10; in series [5] (Homo sapiens, HL-60) it was 6.19. Moreover, the pKi in series [1] was 5.60; in series [2], 8.01. Further, the EC50 at 48 h in series [4] is 50 µM.
In the case of `Cc1nc(-c2ccc(-c3ccc(C(=O)Nc4ncc(C#N)c(OCCN(C)C)n4)cc3)c(Cl)c2)no1` [Example 38, 2′-chloro-N-(5-cyano-4-(2-(dimethylamino)ethoxy)pyrimidin-2-yl)-4′-(5-methyl-1,2,4-oxadiazol-3-yl)-[1,1′-biphenyl]-4-carboxamide], the pKi in series [1] was less than 5.00; in series [2], 7.78. Also, in series [4], the EC50 at 48 h came out at 50 µM.
`COc1cc(-c2noc(C)n2)ccc1-c1ccc(C(=O)Nc2cc(OCCN(C)C)c(Br)cn2)cn1` [Example 43, N-(5-bromo-4-(2-(dimethylamino)ethoxy)pyridin-2-yl)-6-(2-methoxy-4-(5-methyl-1,2,4-oxadiazol-3-yl)phenyl)nicotinamide]: the pEC50 is 5.72 in series [3] (Mono-Mac-1) and 5.60 in series [5] (Homo sapiens, HL-60). Further, the negative-log Ki (pKi) in series [1] was 5.70; in series [2], 8.82.
For `COc1cc(-c2noc(C)n2)ccc1-c1ccc(C(=O)Nc2cc(OCCN(C)C)c(C#N)cn2)cn1` [Example 49, N-(5-cyano-4-(2-(dimethyiamino)ethoxy)pyridin-2-yl)-6-(2-methoxy-4-(5-methyl-1,2,4-oxadiazol-3-yl)phenyl)nicotinamide], the pEC50 was 5.38 in series [3] and 5.94 in series [5]. The pKi in series [1] is less than 5.00; in series [2] it was 6.90.
As for `Cc1nc(-c2ccc(-c3ccc(C(=O)Nc4cc(OCCN(C)C)c(C#N)cn4)cc3)c(C3CC3)c2)no1` [Example 21, N-(5-cyano-4-(2-(dimethylamino)ethoxy)pyridin-2-yl)-2′-cyclopropyl-4′-(5-methyl-1,2,4-oxadiazol-3-yl)-[1,1′-biphenyl]-4-carboxamide], the pEC50 is 5.48 in series [3] (Mono-Mac-1) and 5.44 in series [5] (Homo sapiens, HL-60). Further, the pKi in series [1] is 5.46; in series [2], 8.20. In addition, the EC50 at 48 h in series [4] was greater than 50 µM.
With `Cc1nc(-c2ccc(-c3ccc(C(=O)Nc4cc(OCCN(C)C)c(Br)cn4)cn3)c(Cl)c2)no1` [Example 41, N-(5-bromo-4-(2-(dimethylamino)ethoxy)pyridin-2-yl)-6-(2-chloro-4-(5-methyl-1,2,4-oxadiazol-3-yl)phenyl)nicotinamide], the results for the pKi in series [1] and in series [2] were 6.00 and 9.52, respectively.
As to `Cc1nc(-c2ccc(-c3ccc(C(=O)N4CCc5cc6c(cc54)C4(CCN(C)CC4)CO6)cc3)c(C)c2)no1` [SB9, 1′-Methyl-5-[[2′-methyl-4′-(5-methyl-1,2,4-oxadiazol-3-yl)biphenyl-4-yl]carbonyl]-2,3,6,7-tetrahydrospiro[furo[2,3-f]indole-3,4′-piperidine hydrochloride, reference compound], the pEC50 in series [3] (Mono-Mac-1) is 5.93; in series [5] (Homo sapiens, HL-60), 5.32. The pKi in series [1] was 8.23.
On to `Cc1nc(-c2ccc(-c3ccc(NC(=O)c4ccc(Br)c(OCCN(C)C)c4)cn3)c(F)c2)no1` [Example 65, 4-bromo-3-(2-(dimethylamino)ethoxy)-N-(6-(2-fluoro-4-(5-methyl-1,2,4-oxadiazol-3-yl)phenyl)pyridin-3-yl)benzamide], for which the pEC50 in series [3] (Mono-Mac-1) was 5.88; in series [5] (Homo sapiens, HL-60), 6.03. Also, the pKi was 6.00 in series [1] and 9.30 in series [2].
On to `Cc1nc(-c2ccc(-c3ccc(C(=O)Nc4ccc(C#N)c(OCCN(C)C)n4)cn3)c(C3CC3)c2)no1` [Example 54, N-(5-cyano-6-(2-(dimethylamino)ethoxy)pyridin-2-yl)-6-(2-cyclopropyl-4-(5-methyl-1,2,4-oxadiazol-3-yl)phenyl)nicotinamide], for which the pEC50 is 5.98 in series [3] (Mono-Mac-1) and 5.97 in series [5] (Homo sapiens, HL-60). The pKi was less than 5.00 in series [1] and 7.32 in series [2].
